Laboratory results as given in PMC8393474, “The Interaction of Hemin, a Porphyrin Derivative, with the Purified Rat Brain 2-Oxoglutarate Carrier” (Biomolecules, 2021).

Biological target: T1, 2-oxoglutarate carrier (OGC) (Rattus norvegicus, UniProt P97700)
T1 construct: gene Slc25a11; native carrier purified from rat brain mitochondria, reconstituted into proteoliposomes
T1 sequence (P97700 2-314): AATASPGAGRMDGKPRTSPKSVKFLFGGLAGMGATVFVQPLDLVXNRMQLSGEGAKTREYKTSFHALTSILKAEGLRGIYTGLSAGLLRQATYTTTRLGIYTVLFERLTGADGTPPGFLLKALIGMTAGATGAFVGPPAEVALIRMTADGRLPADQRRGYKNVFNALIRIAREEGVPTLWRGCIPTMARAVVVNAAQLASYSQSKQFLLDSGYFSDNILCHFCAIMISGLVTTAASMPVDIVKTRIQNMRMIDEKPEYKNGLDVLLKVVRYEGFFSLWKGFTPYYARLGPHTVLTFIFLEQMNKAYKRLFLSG
Assay: inhibition of […] 2-oxoglutarate or […] malate uptake in proteoliposomes reconstituted with purified OGC; Lineweaver-Burk and Dixon plots
Type: biochemical

## C=CC1=C(C)C2=Cc3c(C=C)c(C)c4[n]3[Fe]([Cl])[n]3c(c(C)c(CCC(=O)O)c3=CC3=NC(=C4)C(C)=C3CCC(=O)O)=CC1=N2 [hemin]
  IC50: 1.58 ± 0.22 µM
